Experimental data: ChEMBL document CHEMBL3046810, “Total synthesis of cis-solamin and its inhibitory action with bovine heart mitochondrial complex I” (Tetrahedron, 2004)

Biological target: NADH-ubiquinone oxidoreductase chain 1 (Bos taurus, UniProt P03887)
Test: Inhibition of Bos taurus (bovine) mitochodrial complex 1 isolated from heart submitochondrial particle by NADH oxidase assay

Chain of NADH-ubiquinone oxidoreductase chain 1 (P03887 whole entry): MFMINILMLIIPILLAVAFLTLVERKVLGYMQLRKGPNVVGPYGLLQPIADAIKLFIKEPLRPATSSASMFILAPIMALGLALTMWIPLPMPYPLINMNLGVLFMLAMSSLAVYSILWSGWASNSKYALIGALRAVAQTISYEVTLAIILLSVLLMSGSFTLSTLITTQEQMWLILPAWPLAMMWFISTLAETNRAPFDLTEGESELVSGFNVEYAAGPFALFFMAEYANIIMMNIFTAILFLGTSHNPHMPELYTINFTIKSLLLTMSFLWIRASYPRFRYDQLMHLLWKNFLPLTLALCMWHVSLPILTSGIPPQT

First: CCCCCCCCCCCC[C@H](O)[C@@H]1CC[C@H]([C@H](O)CCCCCCCCCCCCC2=C[C@H](C)OC2=O)O1 (stereo in doubt; 1a) [CIS-SOLAMIN]
Second: CCCCCCCCCCCC[C@H](O)[C@H]1CC[C@H]([C@H](O)CCCCCCCCCCCCCCC2=C[C@H](C)OC2=O)O1 [(17R,18R,21R,22S)-reticulation-1]
The IC50 of the first is 7.3-fold lower: 2.2 nM for the first, 16 nM for the second. The first is the more potent here.

Compared with `CCCCCCCCCCCC[C@H](O)[C@@H]1CC[C@H]([C@H](O)CCCCCCCCCCCCC2=C[C@H](C)OC2=O)O1` (stereo in doubt; 1b) [CIS-SOLAMIN], `CCCCCCCCCCCC[C@@H](O)[C@H]1CC[C@H]([C@@H](O)CCCCCCCCCCCCCCC2=C[C@H](C)OC2=O)O1` [(17S, 18S, 21S, 22R)-reticulation-1] is 8.1-fold higher in IC50: 2.1 nM for the first, 17 nM for the second.

`CCCCCCCCCCCC[C@@H](O)[C@H]1CC[C@H]([C@H](O)CCCC[C@@H](O)CCCCCCCC2=C[C@H](C)OC2=O)O1` [(10S)-COROSSOLINE] and `CCCCCCCCCCCC[C@@H](O)[C@H]1CC[C@H]([C@H](O)CCCC[C@H](O)CCCCCCCC2=C[C@H](C)OC2=O)O1` [COROSSOLINE] are within 1.5-fold of each other in IC50: 2 nM for the first, 1.5 nM for the second.

`CCCCCCCCCC[C@H](O)[C@H]1CC[C@H]([C@H]2CC[C@H]([C@H](O)CCCCCCCCCC[C@@H](O)CC3=C[C@H](C)OC3=O)O2)O1` [BULLATACIN] showed an IC50 of 0.8 nM.
